Measurements reported in PubChem BioAssay (NCI).
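How tested: cells in 96-well plates exposed to compound for 48 hours at five concentrations. TGI: total growth inhibition.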

How the values were obtained:
Test in all cases: DTP human tumour cell line panel, 48 h
ACHN renal = tested on: ACHN renal
CCRF-CEM leukemia = tested on: CCRF-CEM leukemia
DMS 114 small cell lung = tested on: DMS 114 small cell lung
DMS 273 small cell lung = tested on: DMS 273 small cell lung
EKVX NSCLC = tested on: EKVX NSCLC
HCT-15 colon = tested on: HCT-15 colon
HOP-92 NSCLC = tested on: HOP-92 NSCLC
K-562 leukemia = tested on: K-562 leukemia
KM12 colon = tested on: KM12 colon
KM20L2 colon = tested on: KM20L2 colon
LOX IMVI melanoma = tested on: LOX IMVI melanoma
LXFL 529 NSCLC = tested on: LXFL 529 NSCLC
M19-MEL melanoma = tested on: M19-MEL melanoma
OVCAR-3 ovarian = tested on: OVCAR-3 ovarian
OVCAR-8 ovarian = tested on: OVCAR-8 ovarian
SF-268 CNS = tested on: SF-268 CNS
SF-539 CNS = tested on: SF-539 CNS
SK-MEL-5 melanoma = tested on: SK-MEL-5 melanoma
SNB-78 CNS = tested on: SNB-78 CNS
UO-31 renal = tested on: UO-31 renal

Measured: TGI

COc1ccc(-n2cnnc2-c2nsc3ccccc23)cc1
> 100 µM: all assays above
